Measurements from the supplement of paper PMC9663587.

Columns and labels:
[1] = compound: CCc1cnn2c(NCc3ccc[n+]([O-])c3)cc(N3CCCC[C@H]3CCO)nc12; assay: increase in dead-cell fraction, 72 h; higher = more death;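 further: breast cancer cell lines in 384-well plates, stained with Hoechst plus LIVE/DEAD far red dye and imaged, cells above an LDR intensity threshold counted dead, Hoechst-negative corpses included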
Neratinib/HKI272 [2] = compound: T1, CCOc1cc2ncc(C#N)c(Nc3ccc(OCc4ccccn4)c(Cl)c3)c2cc1NC(=O)/C=C/CN(C)C [Neratinib/HKI272]; assay: as above
THZ531 [3] = compound: T2, CN(C)C/C=C/C(=O)Nc1ccc(C(=O)N2CCC[C@@H](Nc3ncc(Cl)c(-c4c[nH]c5ccccc45)n3)C2)cc1 [THZ531]; assay: as above
BSJ-03-123 [4] = compound: T3, CC(=O)c1c(C)c2cnc(Nc3ccc(N4CCN(CCOCCOCCOCCNC(=O)COc5cccc6c5C(=O)N(C5CCC(=O)NC5=O)C6=O)CC4)cn3)nc2n(C2CCCC2)c1=O [BSJ-03-123]; assay: as above
THZ1 = compound: CN(C)C/C=C/C(=O)Nc1ccc(C(=O)Nc2cccc(Nc3ncc(Cl)c(-c4c[nH]c5ccccc45)n3)c2)cc1 [THZ1]; assay: as above
YKL-5-124 = compound: C=CC(=O)Nc1ccc(C(=O)Nc2[nH]nc3c2CN(C(=O)N[C@H](CN(C)C)c2ccccc2)C3(C)C)cc1 [YKL-5-124]; assay: as above
BSJ-01-175 = compound: CN(C)C/C=C/C(=O)Nc1ccc(O[C@@H]2CCC[C@@H](Nc3ncc(Cl)c(-c4c[nH]c5ccccc45)n3)C2)cc1 [BSJ-01-175]
Dasatinib = compound: Cc1nc(Nc2ncc(C(=O)Nc3c(C)cccc3Cl)s2)cc(N2CCN(CCO)CC2)n1 [Dasatinib]
Doxorubicin = compound: COc1cccc2c1C(=O)c1c(O)c3c(c(O)c1C2=O)C[C@@](O)(C(=O)CO)C[C@@H]3O[C@H]1C[C@H](N)[C@H](O)[C@H](C)O1 [Doxorubicin]
AZD2014 = compound: CNC(=O)c1cccc(-c2ccc3c(N4CCOC[C@@H]4C)nc(N4CCOC[C@@H]4C)nc3n2)c1 [AZD2014]
[5] = compound: CC(=O)c1c(C)c2cnc(Nc3ccc(N4CCNCC4)cn3)nc2n(C2CCCC2)c1=O
Neratinib/HKI272 [6] = compound: T1, Neratinib/HKI272
Volasertib/BI6727 = compound: CC[C@@H]1C(=O)N(C)c2cnc(Nc3ccc(C(=O)N[C@H]4CC[C@H](N5CCN(CC6CC6)CC5)CC4)cc3OC)nc2N1C(C)C [Volasertib/BI6727]
Taselisib/GDC0032 = compound: Cc1nc(-c2cn3c(n2)-c2ccc(-c4cnn(C(C)(C)C(N)=O)c4)cc2OCC3)n(C(C)C)n1 [Taselisib/GDC0032]
[7] = compound: CO[C@@H](C)Cn1c(=O)n(C)c2cnc3ccc(-c4cncc(C(C)(C)O)c4)cc3c21
Rucaparib = compound: CNCc1ccc(-c2[nH]c3cc(F)cc4c3c2CCNC4=O)cc1 [Rucaparib]
THZ531 [8] = compound: T2, THZ531
BSJ-03-123 [9] = compound: T3, BSJ-03-123
[10] = compound: CC(=O)Nc1cccc(-n2c(=O)n(C3CC3)c(=O)c3c(Nc4ccc(I)cc4F)n(C)c(=O)c(C)c32)c1
Ceritinib/LDK378 = compound: Cc1cc(Nc2ncc(Cl)c(Nc3ccccc3S(=O)(=O)C(C)C)n2)c(OC(C)C)cc1C1CCNCC1 [Ceritinib/LDK378]
Vorinostat = compound: O=C(CCCCCCC(=O)Nc1ccccc1)NO [Vorinostat]
INK128/MLN0128 = compound: CC(C)n1nc(-c2ccc3oc(N)nc3c2)c2c(N)ncnc21 [INK128/MLN0128]
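Wherever GR50, 72 h is given: breast cancer and non-malignant breast epithelial cell lines, Deep Dye Drop or Dye Drop imaging, nine half-log doses, GR normalized to time-zero plates and DMSO-only controls.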

MCF12A
increase in dead-cell fraction ([1]; 0.0001 µM): -0.0058
increase in dead-cell fraction ([1]; 0.0003162 µM): 0.0036
increase in dead-cell fraction ([1]; 0.001 µM): 0.0056
increase in dead-cell fraction ([1]; 0.003162 µM): -0.0029
increase in dead-cell fraction ([1]; 0.01 µM): 0.0006
increase in dead-cell fraction ([1]; 0.03162 µM): 0.0291
increase in dead-cell fraction ([1]; 0.1 µM): 0.541
increase in dead-cell fraction ([1]; 1 µM): 0.517
increase in dead-cell fraction (Neratinib/HKI272 [2]; 0.0003162 µM): -0.002
increase in dead-cell fraction (Neratinib/HKI272 [2]; 0.001 µM): 0.0045
increase in dead-cell fraction (Neratinib/HKI272 [2]; 0.003162 µM): 0.0065
increase in dead-cell fraction (Neratinib/HKI272 [2]; 0.01 µM): -0.0012
increase in dead-cell fraction (Neratinib/HKI272 [2]; 0.03162 µM): -0.0009
increase in dead-cell fraction (Neratinib/HKI272 [2]; 0.1 µM): 0.0012
increase in dead-cell fraction (Neratinib/HKI272 [2]; 0.3162 µM): 0.029
increase in dead-cell fraction (Neratinib/HKI272 [2]; 1 µM): 0.0776
increase in dead-cell fraction (Neratinib/HKI272 [2]; 3.162 µM): 0.146
increase in dead-cell fraction (THZ531 [3]; 0.0001 µM): 0.0108
increase in dead-cell fraction (THZ531 [3]; 0.0003162 µM): 0.0023
increase in dead-cell fraction (THZ531 [3]; 0.001 µM): -0.0009
increase in dead-cell fraction (THZ531 [3]; 0.003162 µM): 0.0027
increase in dead-cell fraction (THZ531 [3]; 0.01 µM): 0.0039
increase in dead-cell fraction (THZ531 [3]; 0.03162 µM): 0.0089
increase in dead-cell fraction (THZ531 [3]; 0.1 µM): 0.0009
increase in dead-cell fraction (THZ531 [3]; 0.3162 µM): 0.0073
increase in dead-cell fraction (THZ531 [3]; 1 µM): 0.332
increase in dead-cell fraction (BSJ-03-123 [4]; 0.001 µM): -0.0046
increase in dead-cell fraction (BSJ-03-123 [4]; 0.003162 µM): 0.0003
increase in dead-cell fraction (BSJ-03-123 [4]; 0.01 µM): 0.0014
increase in dead-cell fraction (BSJ-03-123 [4]; 0.03162 µM): -0.0002
increase in dead-cell fraction (BSJ-03-123 [4]; 0.1 µM): 0.0054
increase in dead-cell fraction (BSJ-03-123 [4]; 0.3162 µM): 0.0008
increase in dead-cell fraction (BSJ-03-123 [4]; 1 µM): 0.0162
increase in dead-cell fraction (BSJ-03-123 [4]; 3.162 µM): 0.0226
increase in dead-cell fraction (BSJ-03-123 [4]; 10 µM): 0.151
increase in dead-cell fraction (THZ1; 0.0001 µM): 0
increase in dead-cell fraction (THZ1; 0.0003162 µM): -0.007
increase in dead-cell fraction (THZ1; 0.001 µM): 0.0031
increase in dead-cell fraction (THZ1; 0.003162 µM): 0.0056
increase in dead-cell fraction (THZ1; 0.01 µM): 0.0015
increase in dead-cell fraction (THZ1; 0.03162 µM): 0.0071
increase in dead-cell fraction (THZ1; 0.1 µM): 0.0475
increase in dead-cell fraction (THZ1; 0.3162 µM): 0.127
increase in dead-cell fraction (THZ1; 1 µM): 0.697
increase in dead-cell fraction (YKL-5-124; 0.001 µM): 0.0376
increase in dead-cell fraction (YKL-5-124; 0.003162 µM): 0.0894
increase in dead-cell fraction (YKL-5-124; 0.01 µM): 0.136
increase in dead-cell fraction (YKL-5-124; 0.03162 µM): 0.155
increase in dead-cell fraction (YKL-5-124; 0.1 µM): 0.184
increase in dead-cell fraction (YKL-5-124; 0.3162 µM): 0.177
increase in dead-cell fraction (YKL-5-124; 1 µM): 0.165
increase in dead-cell fraction (YKL-5-124; 3.162 µM): 0.164
increase in dead-cell fraction (YKL-5-124; 10 µM): 0.252
GR50, 72 h (BSJ-01-175): 4.32 µM
GR50, 72 h (Dasatinib): 0.209 µM
GR50, 72 h (Doxorubicin): 0.0155 µM
GR50, 72 h (AZD2014): 0.0768 µM
GR50, 72 h [5]: > 3.16 µM
GR50, 72 h (Neratinib/HKI272 [6]): 0.422 µM
GR50, 72 h (Volasertib/BI6727): 0.0519 µM
GR50, 72 h (Taselisib/GDC0032): 1.11 µM
GR50, 72 h [7]: 0.167 µM
GR50, 72 h (Rucaparib): > 10 µM
GR50, 72 h (THZ531 [8]): 0.632 µM
GR50, 72 h (BSJ-03-123 [9]): 5.35 µM
GR50, 72 h [10]: 0.00833 µM
GR50, 72 h (Ceritinib/LDK378): 7.62 µM
GR50, 72 h (Vorinostat): 6.67 µM
GR50, 72 h (INK128/MLN0128): 0.022 µM

HCC1954
increase in dead-cell fraction ([1]; 0.0001 µM): -0.0062
increase in dead-cell fraction ([1]; 0.0003162 µM): -0.012
increase in dead-cell fraction ([1]; 0.001 µM): -0.0086
increase in dead-cell fraction ([1]; 0.003162 µM): -0.0038
increase in dead-cell fraction ([1]; 0.01 µM): 0.0856
increase in dead-cell fraction ([1]; 0.03162 µM): 0.615
increase in dead-cell fraction ([1]; 0.1 µM): 0.704
increase in dead-cell fraction ([1]; 0.3162 µM): 0.691
increase in dead-cell fraction ([1]; 1 µM): 0.7
increase in dead-cell fraction (Neratinib/HKI272 [2]; 0.0003162 µM): 0.0018
increase in dead-cell fraction (Neratinib/HKI272 [2]; 0.001 µM): 0.0012
increase in dead-cell fraction (Neratinib/HKI272 [2]; 0.003162 µM): 0.0264
increase in dead-cell fraction (Neratinib/HKI272 [2]; 0.01 µM): 0.0121
increase in dead-cell fraction (Neratinib/HKI272 [2]; 0.03162 µM): 0.0581
increase in dead-cell fraction (Neratinib/HKI272 [2]; 0.1 µM): 0.111
increase in dead-cell fraction (Neratinib/HKI272 [2]; 0.3162 µM): 0.17
increase in dead-cell fraction (Neratinib/HKI272 [2]; 1 µM): 0.264
increase in dead-cell fraction (Neratinib/HKI272 [2]; 3.162 µM): 0.42
increase in dead-cell fraction (THZ531 [3]; 0.0001 µM): 0.0002
increase in dead-cell fraction (THZ531 [3]; 0.0003162 µM): 0.0055
increase in dead-cell fraction (THZ531 [3]; 0.001 µM): 0.0013
increase in dead-cell fraction (THZ531 [3]; 0.003162 µM): 0.0058
increase in dead-cell fraction (THZ531 [3]; 0.01 µM): 0.0048
increase in dead-cell fraction (THZ531 [3]; 0.03162 µM): 0.004
increase in dead-cell fraction (THZ531 [3]; 0.1 µM): 0.0127
increase in dead-cell fraction (THZ531 [3]; 0.3162 µM): 0.0525
increase in dead-cell fraction (THZ531 [3]; 1 µM): 0.42
increase in dead-cell fraction (BSJ-03-123 [4]; 0.001 µM): 0.0014
increase in dead-cell fraction (BSJ-03-123 [4]; 0.003162 µM): 0.0109
increase in dead-cell fraction (BSJ-03-123 [4]; 0.01 µM): 0.0001
increase in dead-cell fraction (BSJ-03-123 [4]; 0.03162 µM): 0.004
increase in dead-cell fraction (BSJ-03-123 [4]; 0.1 µM): 0.0138
increase in dead-cell fraction (BSJ-03-123 [4]; 0.3162 µM): 0.0101
increase in dead-cell fraction (BSJ-03-123 [4]; 1 µM): 0.0096
increase in dead-cell fraction (BSJ-03-123 [4]; 3.162 µM): 0.0252
increase in dead-cell fraction (BSJ-03-123 [4]; 10 µM): 0.141
increase in dead-cell fraction (THZ1; 0.0001 µM): -0.0011
increase in dead-cell fraction (THZ1; 0.0003162 µM): 0.0018
increase in dead-cell fraction (THZ1; 0.001 µM): 0.0068
increase in dead-cell fraction (THZ1; 0.003162 µM): -0.0006
increase in dead-cell fraction (THZ1; 0.01 µM): -0.0054
increase in dead-cell fraction (THZ1; 0.03162 µM): 0.0087
increase in dead-cell fraction (THZ1; 0.1 µM): 0.0688
increase in dead-cell fraction (THZ1; 0.3162 µM): 0.153
increase in dead-cell fraction (THZ1; 1 µM): 0.596
increase in dead-cell fraction (YKL-5-124; 0.001 µM): 0.076
increase in dead-cell fraction (YKL-5-124; 0.003162 µM): 0.0781
increase in dead-cell fraction (YKL-5-124; 0.01 µM): 0.11
increase in dead-cell fraction (YKL-5-124; 0.03162 µM): 0.0779
increase in dead-cell fraction (YKL-5-124; 0.1 µM): 0.129
increase in dead-cell fraction (YKL-5-124; 0.3162 µM): 0.104
increase in dead-cell fraction (YKL-5-124; 1 µM): 0.102
increase in dead-cell fraction (YKL-5-124; 3.162 µM): 0.0854
increase in dead-cell fraction (YKL-5-124; 10 µM): 0.15
GR50, 72 h (BSJ-01-175): 0.102 µM
GR50, 72 h (Dasatinib): 1.86 µM
GR50, 72 h (Doxorubicin): 0.00718 µM
GR50, 72 h (AZD2014): 0.0484 µM
GR50, 72 h [5]: > 3.16 µM
GR50, 72 h (Neratinib/HKI272 [6]): 0.0672 µM
GR50, 72 h (Volasertib/BI6727): 0.00659 µM
GR50, 72 h (Taselisib/GDC0032): 0.00701 µM
GR50, 72 h [7]: < 0.001 µM
GR50, 72 h (Rucaparib): > 10 µM
GR50, 72 h (THZ531 [8]): 0.362 µM
GR50, 72 h (BSJ-03-123 [9]): 1.07 µM
GR50, 72 h [10]: 0.0167 µM
GR50, 72 h (Ceritinib/LDK378): 2.33 µM
GR50, 72 h (Vorinostat): 1.43 µM
GR50, 72 h (INK128/MLN0128): 0.0142 µM
